± gives the standard deviation of the averaged measurements.
How the values were obtained:
Assay in all cases: level (log10 ratio to DMSO vehicle control); higher = higher biomarker level / cell amount than vehicle control
[1] = compound: O=C(O)C=C(C(F)(F)F)C(F)(F)F [3,3-Bis(trifluoromethyl)-2-propenoic acid] (in DMSO)
Experimental: (§1)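 BioMAP Diversity Plus panel of 12 human primary cell co-culture systems (3C, 4H, LPS, SAg, BT, BF4T, BE3C, CASM3C, HDF3CGF, KF3CT, MyoF, Mphg). Compounds were added 1 h before stimulation and left for 24 h (MyoF 48 h; BT 72 h for soluble read-outs or 6 d for IgG). Biomarkers were read by ELISA, cytotoxicity by SRB, PBMC viability and proliferation by Alamar Blue. Each well value was divided by the mean of 8 DMSO control wells on the same plate and log10 transformed; duplicate blinded samples were tested at 4 concentrations.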

[2] = compound: O=C(O)CCC(F)(C(F)(F)F)C(F)(F)F [4,4-bis(Trifluoromethyl)-4-fluoropropanoic acid] (in DMSO)
Experimental: as §1

[3] = compound: O=C(O)C(F)(F)C(F)(F)C(F)(F)OC(F)(F)F [Perfluoro(4-methoxybutanoic) acid] (in DMSO)
Experimental: as §1

[4] = compound: OCCC(F)(F)C(F)(F)C(F)(F)C(F)(F)F [4:2 Fluorotelomer alcohol] (in DMSO)
Experimental: as §1

[5] = compound: O=C(O)C(F)(OC(F)(F)C(F)(OC(F)(F)C(F)(OC(F)(F)C(F)(F)C(F)(F)F)C(F)(F)F)C(F)(F)F)C(F)(F)F [Perfluoro-(2,5,8-trimethyl-3,6,9-trioxadodecanoic)acid] (in DMSO)
Experimental: as §1

[6] = compound: OCC(F)(F)C(F)(F)C(F)(F)C(F)(F)C(F)(F)C(F)(F)CO [1H,1H,8H,8H-Perfluorooctane-1,8-diol] (in DMSO)
Experimental: as §1

| Test System | level (log10) ([1]; 6700 nM) | level (log10) ([1]; 20000 nM) | level (log10) ([1]; 60000 nM) | level (log10) ([2]; 6700 nM) | level (log10) ([2]; 20000 nM) | level (log10) ([2]; 60000 nM) | level (log10) ([3]; 6700 nM) | level (log10) ([3]; 20000 nM) | level (log10) ([3]; 60000 nM) | level (log10) ([4]; 6700 nM) | level (log10) ([4]; 20000 nM) | level (log10) ([4]; 60000 nM) | level (log10) ([5]; 1100 nM) | level (log10) ([5]; 3300 nM) | level (log10) ([5]; 10000 nM) | level (log10) ([6]; 6700 nM) | level (log10) ([6]; 20000 nM) | level (log10) ([6]; 60000 nM) |
| --- | --- | --- | --- | --- | --- | --- | --- | --- | --- | --- | --- | --- | --- | --- | --- | --- | --- | --- |
| CASM3C:CXCL9/MIG | -0.059 ± 0.051 | -0.0845 ± 0.022 | -0.0965 ± 0.087 | -0.0035 ± 0.005 | -0.0165 ± 0.00071 | 0.018 ± 0.047 | -0.0025 ± 0.016 | -0.0105 ± 0.0078 | 0.015 ± 0.0028 | 0.008 ± 0.0014 | 0.0085 ± 0.029 | 0.0245 ± 0.056 | 0.0055 ± 0.0021 | -0.0065 ± 0.0092 | 0.0075 ± 0.005 | 0.0035 ± 0.012 | 0.016 ± 0.0028 | 0.0235 ± 0.021 |
| KF3CT:CD54/ICAM-1 | -0.007 ± 0.0057 | 0.008 ± 0.0071 | 0.022 ± 0.016 | 0.0055 ± 0.0078 | -0.0085 ± 0.0092 | 0.01 ± 0.0085 | -0.005 ± 0.024 | -0.017 | -0.002 ± 0.013 | -0.0115 ± 0.0092 | 0.0015 ± 0.019 | -0.009 ± 0.0057 | 0.004 ± 0.0042 | -0.0025 ± 0.0064 | 0.013 ± 0.013 | -0.009 ± 0.0042 | 0.0015 ± 0.0092 | -0.01 ± 0.018 |
| HDF3CGF:Proliferation 72hr | -0.0325 ± 0.021 | -0.086 ± 0.069 | -0.24 ± 0.066 | -0.0275 ± 0.035 | 0.0025 ± 0.028 | 0.037 ± 0.0014 | -0.003 ± 0.047 | 0.0295 ± 0.0021 | -0.003 ± 0.031 | -0.014 ± 0.045 | -0.022 ± 0.0014 | 0.033 ± 0.027 | -0.0205 ± 0.011 | 0.038 ± 0.0099 | 0.0395 ± 0.028 | -0.04 ± 0.013 | -0.0035 ± 0.026 | -0.102 ± 0.027 |
| HDF3CGF:EGFR | -0.02 ± 0.041 | -0.039 ± 0.05 | -0.0145 ± 0.0035 | -0.05 ± 0.028 | -0.0445 ± 0.04 | -0.013 ± 0.033 | -0.002 ± 0.072 | 0.02 ± 0.055 | 0.0015 ± 0.053 | -0.0285 ± 0.028 | -0.001 ± 0.072 | 0.0275 ± 0.053 | -0.0365 ± 0.15 | -0.113 ± 0.16 | 0.025 ± 0.04 | 0.006 ± 0.023 | 0.001 ± 0.018 | -0.0185 ± 0.026 |

From the supplement of paper PMC10331698
